From US5817651A, “3-arylcarbonyl-1-(C-attached-N-heteryl)-1H-indoles” (Sanofi, priority 1997, dated 1998)
Structures can show the parent of a compound that is named as a salt. Where two headings read alike, the source gives them in different places.

Legend:
[1] = tested on: mouse vasa deferentia preparation; assay: mouse vas deferens test (MVD); type: cell-based; details: inhibition of contractions, in vitro, active at 5.0 μM or less
Description: It has been shown previously that smoking marijuana reduces intraocular pressure in man [Helper and Frank, Marijuana Smoking and Intraocular Pressure., J. Am. Med. Assoc. 217, 1392 (1971)]. Topical application or systemic injection of delta-9 tetrahydrocannabinol, a principal active ingredient in marijuana, also reduces intraocular pressure [Purnell and Gregg, delta-9 Tetrahydrocannabinol, Euphoria and Intraocular Pressure in Man., Ann. Opth. 7, 921-923 (1975); Green and Pederson, Effect of delta-9 Tetrahydrocannabinol on Aqueous Dynamics and Ciliary Body Permeability in the Rabbit Eye., Exptl. Eye Research 15, 499-507 (1973); Colasanti, Craig and Allara, Intraocular Pressure, Ocular Toxicity and Neurotoxicity after Administration of Cannabinol or Cannibigerol, Exptl. Eye Research 39, 252-259 (1984)]. Similarly, synthetic cannabinoids also reduce intraocular pressure [Green, Symunds, Oliver and Elijah, Intraocular Pressure Following Systemic Administration of Cannabinoids., Curr. Eye Research 2, 247-253 (1982); Tiedeman, Shields, Weber, Crow, Coccetto, Harris and Howes, Opthalmology, 88, 270-277 (1981); Colasanti et al., supra]. Cannabinoid receptor binding sites can be defined as those to which radio-labelled 4-(1,1-dimethylheptyl)-2,3'-dihydroxy-6'alpha-(3-hydroxypropyl)-1', 2', 3', 4', 5', 6'-hexahydrobiphenyl (CP 55940) binds in a specific and saturable manner and the binding sites are heterogeneously distributed in the brain [Devane, Dysarz, Johnson, Melvin and Howlett, Determination and Characterization of a Cannabinoid Receptor in Rat Brain, Molecular Pharm. 34, 605-613 (1988)]. Natural and synthetic cannabinoids and certain of the compounds of the present invention, as more particularly described above, bind to CP 55940 binding sites. […] It is believed that agonist activity at the cannabinoid receptor mediates the anti-glaucoma actions of cannabinoids, and that agonist activity at this receptor correlates with ocular pressure lowering actions in man. Accordingly the cannabinoid receptor agonist activity of the compounds of the present invention indicate their usefulness in reducing ocular pressure.

[2] = tested on: acetylcholine-induced abdominal constriction; assay: acetylcholine-induced abdominal constriction test (ACH); type: in vivo; set-up: key to ACH remark (Depr. = depressant): The abbreviations IA and Depr. represent, respectively, inactive and depressant; The abbreviations IA and Depr. represent, respectively, inactive and depressant; details: mice; for ED50 / inhibition in vivo at 100 mg/kg: Mus musculus; for ACH remark (Depr. = depressant): remark beside the ED50; for inhibition in vivo at 100 mg/kg: dose level 100, read-out: ACH percent inhibition at dose 100
Description: J. Pharmacol. Chemotherap. 32, 295 (1968); a modification of the anti-bradykinin test, which is also a primary analgesic screening procedure, described by Berkowitz et al., J. Pharmacol. Exptl. Therap. 177, 500-508 (1971), Blane et al., J. Pharm. Pharmacol. 19, 367-373 (1967), Botha et al., Eur. J. Pharmacol. 6, 312-321 (1969) and Deffenu et al., J. Pharm. Pharmacol. 18, 135 (1966); and the Randall-Selitto analgesic test described by Randall and Selitto, Arch. Int. Pharmacodyn., 111, 409-419 (1957).
Data in the developing adjuvant arthritis (AA) and plasma fibronectin (FN) assays are expressed as percent inhibition, i.e. inhibition of non-injected paw inflammation (NIP) and injected paw (RPV) and lowering of plasma fibronectin, the asterisks * and ** indicating statistical significance at the p<0.01 and p<0.05 levels, respectively. […] Non-statistically significant results are recorded as "------ ". In the acetylcholine-induced abdominal constriction test, the test compounds were administered either as suspensions in gum tragacanth (GT) or as aqueous solutions prepared by addition of just sufficient dilute aqueous methanesulfonic acid (MS) or dilute aqueous lactic acid (LA) to dissolve the compound. The compounds are identified by the example number above where their preparations are described. All data in the anti-bradykinin, rat writhing and Randall-Selitto tests were obtained on oral administration.

[3] = tested on: adjuvant induced arthritis; assay: developing adjuvant arthritis (AA) assay; type: in vivo; details: arthritic rats; printed * = p<0.01, ** = p<0.05
Protocol: Antirheumatic and anti-inflammatory activities of the compounds of the invention were determined using the developing adjuvant arthritis assay in rats and the plasma fibronectin assay in arthritic rats. The developing adjuvant arthritis assay was used in conjunction with the plasma fibronectin assay as a primary screening method in the evaluation of compounds for potential use as disease modifying anti-rheumatic drugs. The procedure used to induce arthritis in rats is a modification of the methods published by Pearson, J. Chron. Dis. 16, 863-874 (1973) and by Glenn et al., Amer. J. Vet. Res. 1180-1193 (1965). Adjuvant induced arthritis bears many of the traits of rheumatoid arthritis. It is a chronic, progressive, deforming arthritis of the peripheral joints, with a primary mononuclear cell response consisting of bone and joint space invasion by pannus. In order to detect disease modifying anti-rheumatic drug activity, drug treatment is started before the disease has become irrevocably established. Since such drugs are not designed to be administered prophylactically, drug treatment of adjuvant arthritis is initiated at a time when the disease is developing but is not yet irreversible. Animals develop significant systemic arthritic disease which can be measured by swelling of the non-injected rear paw (NIP) 15 to 20 days following an initial injection on day 1 of complete Freund's adjuvant into the right hindfoot paw.
(§1) Data in the developing adjuvant arthritis (AA) and plasma fibronectin (FN) assays are expressed as percent inhibition, i.e. inhibition of non-injected paw inflammation (NIP) and injected paw (RPV) and lowering of plasma fibronectin, the asterisks * and ** indicating statistical significance at the p<0.01 and p<0.05 levels, respectively. Compounds are considered active at p<0.05 level. Non-statistically significant results are recorded as "------ ". In the acetylcholine-induced abdominal constriction test, the test compounds were administered either as suspensions in gum tragacanth (GT) or as aqueous solutions prepared by addition of just sufficient dilute aqueous methanesulfonic acid (MS) or dilute aqueous lactic acid (LA) to dissolve the compound. The compounds are identified by the example number above where their preparations are described. All data in the anti-bradykinin, rat writhing and Randall-Selitto tests were obtained on oral administration.

[4] = tested on: acetic acid-induced writhing; assay: acetic acid-induced writhing assay in the rat (RW); type: in vivo; details: for ED50: Rattus norvegicus, po; for ED50 / RW ED50: oral administration
Protocol: as §1

[5] = Table 9, Examples, no route marked in the cell, read-out: ACH ED50
[6] = iv, Table 9, iv, read-out: ACH ED50 (iv)

SMILES	IC50 ([1]; Mus musculus) [nM]	ED50 [2, 5] [mg/kg]	other results
O=C(c1cccc2ccccc12)c1cn(CC2COCCN2)c2ccccc12 (centres unmarked) [Example 8G]	4.7		ACH percent inhibition at dose 30 ([2]; Table 9, dose level 30): 100%
COc1ccc(C(=O)c2cn(CC3CCCCN3C)c3ccccc23)cc1 (centres unmarked) [Example 2J]	3	6	NIP: percent inhibition of non-injected paw inflammation [3]: 66%; RPV: percent inhibition of injected paw [3]: 27%; ACH remark (Depr. = depressant) ([2]; Table 9): Depr.; ED50 [4]: 0.5 mg/kg
COc1ccc(C(=O)c2c(C)n(C(C)C3CCCN3C)c3ccccc23)cc1 (centres unmarked) [Example 1AF]	542	19	
Cc1c(C(=O)c2ccc(O)cc2)c2ccccc2n1CC1CCCN1C (centres unmarked) [Example 11A, 2-methyl-3-(4-hydroxybenzoyl)-1-[(1-methyl-2-pyrrolidinyl)methyl]-1H-indole hydrochloride]	284		
COc1ccc(C(=O)c2cn(C(C)C3CCCN3C)c3ccccc23)cc1 (centres unmarked) [Example 1AB]			IC50 [1]: 560 nM; ACH ED50 ([2]; Table 9, Examples, no route marked in the cell): 19 mg/kg; RW ED50 [4]: 10 mg/kg
O=C(c1cccc2ccccc12)c1cn(CC2CCCCN2Cc2ccccc2)c2ccccc12 (centres unmarked) [Example 2AM]	51		
O=C(c1cccc2ccccc12)c1cn(C2CCCCN(Cc3ccccc3)C2)c2ccccc12 (centres unmarked) [Example 2AO]	480		
O=C(c1cccc(F)c1)c1cn(CC2CCCN2)c2ccccc12 (centres unmarked) [Example 8F]	325		
COc1ccc(C(=O)c2c(C)n(C3CN(C)C3)c3ccccc23)cc1.O=C(O)/C=C\C(=O)O [Example 10A, 2-methyl-3-(4-methoxybenzoyl)-1-(1-methyl-3-azetidinyl)-1H-indole maleate]	495	40	
COc1ccc(C(=O)c2c(C)n(CC3CCC(C)(C)N3C)c3ccccc23)cc1 (centres unmarked) [Example 1AH]	330		
O=C(c1cccc2ccccc12)c1cn(CC2COCCN2Cc2ccccc2)c2ccccc12 (centres unmarked) [Example 3F]	224		ED50 [2, 6]: 2.2 mg/kg
Cc1c(C(=O)c2cccc3ccccc23)c2ccccc2n1CC1CCCN1C (centres unmarked) [Example 2Q]	2		inhibition in vivo at 100 mg/kg ([2]; Table 9): 20%
COc1ccc(C(=O)c2cn(C(C)C3CCCN3C)c3ccccc23)cc1 (centres unmarked) [Example 1AA]		23	IC50 [1]: 127 nM; ED50 [2, 6]: 5 mg/kg; ED50 [4]: 20 mg/kg
CN1CCCCC(n2cc(C(=O)c3cccc4ccccc34)c3ccccc32)C1 (centres unmarked) [Example 2Z]	82		NIP: percent inhibition of non-injected paw inflammation [3]: 65%; ACH percent inhibition at dose 30 (iv) ([2]; Table 9, dose level 30, iv): 80%
CN1CCN(C)C(Cn2cc(C(=O)c3cccc4ccccc34)c3ccccc32)C1 (centres unmarked) [3G (base)]	15		
Cc1c(C(=O)c2cccc3ccccc23)c2ccccc2n1CC1CN(C)CCO1 (centres unmarked) [Example 1G]	50		ED50 [2, 6]: 6 mg/kg; inhibition in vivo at 100 mg/kg ([2]; Table 9): 10%

SMILES	IC50 ([1]; Mus musculus) [nM]	ED50 [2, 5] [mg/kg]	other results
Cc1c(C(=O)c2ccccc2F)c2ccccc2n1CC1CCC(C)N1 (centres unmarked) [Example 8E]	160		
CN1CCCC(Cn2cc(C(=O)c3cccc4ccccc34)c3ccccc32)C1 (centres unmarked) [Example 1P]	28	144	NIP: percent inhibition of non-injected paw inflammation [3]: 38%; RPV: percent inhibition of injected paw [3]: 43%
COc1ccc(C(=O)c2cn(CC3CCCN3C)c3ccccc23)cc1 (centres unmarked) [Example 2W]	8	11	ACH remark (Depr. = depressant) ([2]; Table 9): Depr.; ED50 [4]: 3 mg/kg
Cc1c(C(=O)c2cccc3ccccc23)c2ccccc2n1C1CCCCN(C)C1 (centres unmarked) [Example 2AB]	13		inhibition in vivo at 100 mg/kg ([2]; Table 9): 30%
CSc1ccc(C(=O)c2c(C)n(CC3CCCN3C)c3ccccc23)cc1 (centres unmarked) [Example 1V]	130	25	ED50 [4]: 7 mg/kg
O=C(c1cccc2ccccc12)c1cn(CC2CCCCN2)c2ccccc12 (centres unmarked) [Example 4I]	0.3		ACH percent inhibition at dose 30 ([2]; Table 9, dose level 30): 30%
CC(C1CCCN1C)n1cc(C(=O)c2ccccc2F)c2ccccc21 (centres unmarked) [Example 1AC]	111		inhibition in vivo at 100 mg/kg ([2]; Table 9): 40%
CN1CCCCC1Cn1cc(C(=O)c2ccccc2F)c2ccccc21 (centres unmarked) [Example 2AC]	3	10	ACH remark (Depr. = depressant) ([2]; Table 9): Depr.
CN1CCCC1Cn1cc(C(=O)c2ccccc2F)c2ccccc21 (centres unmarked) [Example 2M]	39	53	
COc1ccc(C(=O)c2cn(CC3CCCN(C)C3)c3ccccc23)cc1 (centres unmarked) [Example 1N]	94	91	RW ED50 [4]: 28.3 mg/kg
CN1CCCCC1CCn1cc(C(=O)c2cccc3ccccc23)c2ccccc21 (centres unmarked) [Example 2U]	107		inhibition in vivo at 100 mg/kg ([2]; Table 9): 30%; RW percent inhibition at dose 30 ([4]; oral, dose level 30): 50%
CN1CC[N+](C)(C)CC1Cn1cc(C(=O)c2cccc3ccccc23)c2ccccc21 (centres unmarked) [3G (quaternary)]	156		
Cc1c(C(=O)c2ccc(O)cc2)c2ccccc2n1CC1CCC(C)N1C (centres unmarked) [Example 11B, 2-methyl-3-(4-hydroxybenzoyl)-1-[(1,5-dimethyl-2-pyrrolidinyl)methyl]-1H-indole hydrochloride]	217		
CN1CCOCC1Cn1cc(C(=O)c2cccc3ccccc23)c2ccccc21.Cl (centres unmarked) [Example 10C, 3-(1-naphthylcarbonyl)-1-[(4-methyl-3-morpholinyl)methyl]-1H-indole hydrochloride]	0.4		ACH percent inhibition at dose 30 ([2]; Table 9, dose level 30): 50%
CCc1ccc(C(=O)c2c(C)n(CC3CCCN3C)c3ccccc23)cc1 (centres unmarked) [Example 2AK]	25	40	ED50 [4]: 7 mg/kg
COc1ccc(C(=O)c2c(C)n(C[C@@H]3CC[C@H](C)N3C)c3ccccc23)cc1 (relative stereo) [Example 1Z]	48	14	ED50 [2, 6]: 3 mg/kg
